We go through 2 compounds from US4661494A (priority 1985, dated 1987).

Assay type in all cases: in vivo
In assay [1] the test system is Rice Blast organism Piricularia oryzae. The experiment in a line: whole plant or invertebrate.
In assay [2] the test system is Celery Late Blight organism Septoria apii. The experiment in a line: whole plant or invertebrate.
Assay [3] deals with Grape Downy Mildew organism Plasmopara viticola. Nature of the assay: Grape Downy Mildew control, detached grape leaves. Conditions: held 7 to 9 days after 2 days incubation. As for the experimental part:
The compounds of the invention were tested for the control of the Grape Downy Mildew organism Plasmopara viticola. Detached leaves, between 70 mm and 85 mm in diameter, 7-week-old Vitis vinifera cultivar Emperor grape seedlings were used as hosts. The leaves were sprayed with a 250-ppm solution of the test compound in acetone. The sprayed leaves were dried, inoculated with a spore suspension of the organism, placed in a humid environmental chamber and incubated at 66° F. to 68° F. and about 100% relative humidity. After incubation for 2 days, the plants were then held in a greenhouse 7 to 9 days; then the amount of disease control was determined. The percent disease control provided by a given test compound was based on the percent disease reduction relative to untreated check plants.

Assay [4] relates to Bean Powdery Mildew organism Erysiphe polygoni. Nature of the assay: Bean Powdery Mildew control, seedling bean plants. The settings on record: inoculated 1 day later, 10 days. As to the method:
The compounds of the invention were tested for the control of the Bean Powdery Mildew organism Erysiphe polygoni. Seedling bean plants were sprayed with a 250-ppm solution of the test compound in acetone, water and a nonionic emulsifier. The sprayed plants were then inoculated 1 day later with the organism. The plants were maintained for 10 days at temperatures of 68° F. at night with daytime temperatures of 72° F. to 80° F.; relative humidity was maintained at 40% to 60%. The percent disease control provided by a given test compound was based on the percent disease reduction relative to the untreated check plants.

Assay [5] relates to Tomato Early Blight organism Alternaria solani conidia. The experiment in a line: Tomato Early Blight control, tomato seedlings. The settings on record: inoculated 1 day later, about 12 days. As to the method: Compounds of the invention were tested for the control of the Tomato Early Blight organism Alternaria solani conidia. Tomato (variety Bonny Best) seedlings of 6- to 7-weeks old were used. The tomato plants were sprayed with a 250-ppm solution of the test compound in an acetone-and-water solution containing a small amount of a nonionic emulsifier. The sprayed plants were inoculated 1 day later with the organism, placed in the environmental chamber and incubated at 66° F. to 68° F. and 100% relative humidity for 24 hours. Following the incubation, the plants were maintained in a greenhouse for about 12 days. Percent disease control was based on the percent disease development on untreated check plants.

The subject of assay [6] is Uromyces phaseoli tipica. Nature of the assay: Leaf Rust (Bean Rust) control, pinto beans. Conditions: about 14 days. As to the method:
The Leaf Rust test was made using pinto beans. The pathogen was Uromyces phaseoli tipica. The pinto bean plants were sprayed with a 250-ppm solution of the test compound in an acetone-water mixture containing a nonionic emulsifier. The treated plants were inoculated thereafter with the pathogen and then incubated in an environmental chamber for approximately 20 hours at 100% relative humidity and a temperature of 68° F. to 70° F. The plants were then removed from the chamber, allowed to dry, and then maintained in a greenhouse at a 60% to 80% relative humidity. The rate of infection on the leaves was made after about 14 days. The percent disease control provided by a given test compound was based on the percent disease reduction relative to untreated check plants.

For assay [7], the system named is Tomato Late Blight organism Phytophthora infestans. Nature of the assay: whole plant or invertebrate.

Each structure is given as a SMILES string.

Turning to `CCCN(CC(=O)Nc1c(Cl)cc(Cl)cc1Cl)C(=O)c1cccnc1` [Compound 1, N-(2,4,6-trichlorophenyl), N'-(n-propyl), N'-(3-pyridylcarbonyl) glycinamide], the activity at 625 ppm in assay [1] (Pyricularia oryzae, read-out: Fungicidal Activity % Control RB) was 0%. Further, the activity at 250 ppm came out at 50% in assay [2] (336 h, read-out: Fungicidal Activity % Control CLB); 3% in assay [3] (Plasmopara viticola, in Vitis vinifera, read-out: Fungicidal Activity % Control GDM); 100% in assay [4] (Erysiphe polygoni, read-out: Fungicidal Activity % Control BPM); 85% in assay [5] (Alternaria solani, read-out: Fungicidal Activity % Control TEB); 4% in assay [6] (Uromyces phaseoli, 336 h, read-out: Fungicidal Activity % Control BR); 0% in assay [7] (Phytophthora infestans, read-out: Fungicidal Activity % Control TLB).

Turning to `CCCN(CC(=O)Nc1c(C)cccc1C)C(=O)c1cccnc1` [Compound 2, N-(2,6-dimethylphenyl)-N'-(n-propyl), N'-(3-pyridylcarbonyl) glycinamide], the “Fungicidal Activity % Control RB” value in assay [1] (625 ppm, rice (Calrose M-9), inoculated 1 day later, about 12 to 16 days) was 0%. In addition, the “Fungicidal Activity % Control CLB” value in assay [2] (250 ppm, celery (Utah), approximately 14 days) is given as 58%. Moreover, the “Fungicidal Activity % Control GDM” value in assay [3] (250 ppm, detached Vitis vinifera leaves) is given as 7%. Further, the “Fungicidal Activity % Control BPM” value in assay [4] (250 ppm) turned out to be 53%. The “Fungicidal Activity % Control TEB” value in assay [5] (250 ppm) was 22%. Besides, the “Fungicidal Activity % Control BR” value in assay [6] (250 ppm) was 0%. Also, the “Fungicidal Activity % Control TLB” value in assay [7] (250 ppm, tomato, inoculated 1 day later, approximately 7 days) was 10%.
